The target of series [1] is T1, PPAR-γ (Homo sapiens, UniProt P37231).
T1 construct: endogenous in cells; host or cells: HeLa
T1 sequence (P37231 1-505): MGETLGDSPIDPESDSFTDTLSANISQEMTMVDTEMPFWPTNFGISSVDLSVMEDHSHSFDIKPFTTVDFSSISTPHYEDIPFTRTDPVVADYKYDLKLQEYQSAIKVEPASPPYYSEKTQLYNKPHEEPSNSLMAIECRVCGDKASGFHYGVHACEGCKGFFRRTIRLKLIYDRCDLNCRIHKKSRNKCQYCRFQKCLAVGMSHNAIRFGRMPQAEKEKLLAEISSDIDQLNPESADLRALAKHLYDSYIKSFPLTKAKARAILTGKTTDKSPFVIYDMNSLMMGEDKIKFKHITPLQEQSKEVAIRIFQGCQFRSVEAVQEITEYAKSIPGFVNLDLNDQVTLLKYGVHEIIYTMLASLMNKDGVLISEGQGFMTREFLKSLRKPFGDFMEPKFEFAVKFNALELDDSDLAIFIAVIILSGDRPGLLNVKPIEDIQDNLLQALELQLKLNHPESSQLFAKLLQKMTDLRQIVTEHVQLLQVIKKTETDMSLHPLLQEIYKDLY
Briefly: PPAR-γ ELISA Assay in HeLa cells (in vitro PPAR-γ assay). The format is cell-based. To be noted: 50 μg/mL; for PPAR-γ activity in the in vitro assay (in words): versus positive control rosiglitazone. As for the experimental part:
In addition to the Western blot, the diverse library was also screened in the in vitro PPAR-γ assay. […] The compounds were tested at 50 μg/mL according to the protocol detailed in section 3.2.3.
On the technique in general: In an ELISA, binding on a coated surface is turned into a signal by an enzyme label.

The nature of series [2]: Solubility in NMR solvents. Format: physicochemical. To be noted: CD3OD. As for the experimental part:
Solubility of the fractions was a challenge, and chloroform-d (CDCl3), […], methanol-d4 (CD3OD), dimethyl sulfoxide-d6, and water-d2 (D2O) (Cambridge Isotope Laboratories, Tewksbury, MA, USA) were all tried as solvents. […] Since there was only 1.5 mg of material, further purification and structure elucidation were not pursued.
Fraction 3 was most soluble in D2O, and at approximately 11 mg/mL, ^1H and ^13C NMR data were obtained in an effort to confirm the presence of an isopropyl ether derivative (40). However, solubility of fraction 3 continued to be problematic even in D2O. Further acquisition attempts with increased probe temperature (310 K) were no more successful at keeping the compound (40) in solution.

Series [3] has as its system GLUT-4. The series can be described thus: Diabetic zebrafish Western blot, GLUT-4 expression. Format: in vivo. Conditions: 10 μM, FIG. 5. As for the experimental part: Alloxan-induced diabetic zebrafish were treated with compounds for immunoblot to validate the newly developed animal model, determine the antidiabetic potential of natural product leads, evaluate glucose metabolism, and discover possible mechanisms of action.
At 72 hpf, naturally dechorionated zebrafish were sorted into a 24-well microplate with 10 fish per well. Type 2 diabetes was induced with the diabetogenic agent alloxan at a dose of 0.5 mg/mL in system water for 3 hours. The incubation solution was changed to 0.01% DMSO in system water with compounds at concentrations of 20 μg/mL or […], respectively. After 3 hours of treatment with natural product samples, 10 mg/mL D-glucose was administered in system water for 30 minutes, followed by 1 hour in fresh system water to metabolize the glucose and natural product leads. Upon completion of the 4-phase treatment cycle, zebrafish treatment groups were snap frozen into individual microcentrifuge tubes on dry ice, stored overnight at −80° C., thawed, homogenized with 2 μL PBS per animal, and centrifuged at 4° C. for 1 hour at 17,000 rpm. Protein content of homogenate supernatant was determined using the Pierce BCA Protein Assay kit (Pierce Biotechnology) and bovine serum albumin (BSA) standard curve. Absorbance of protein solutions from zebrafish homogenates and serial dilutions of the BSA standard were measured at 544 nm, using a FLUOstar Optima plate reader (BMG Labtechnologies GmbH, Inc.). Homogenates were analyzed by Western blot. Equal amounts of protein (20 μg) were combined with 4× lithium dodecyl sulphate (LDS) loading buffer (NuPAGE, Life Technologies, Carlsbad, CA, USA), brought to volume (15 μL) with PBS, and heated to 95° C. for 5 minutes. […]
Electrophoresis was performed using NuPAGE MES SDS Running Buffer and XCell SureLock Mini-Cell Electrophoresis System (Life Technologies). […] Conjugated antibodies were detected using SuperSignal West Femto chemiluminescent substrate from Pierce Biotechnology. […] Band density was quantified for proteins of interest using ImageJ Gel Analysis. […]
In general terms: A western blot detects proteins with antibodies after separation by electrophoresis.

The compound `COc1cc(O[C@@H]2OCC(O)(CO[C@@H]3OC(CO)[C@@H](O)C(O)C3O)C2O)c2c(-c3ccc(OC(C)C)c(O)c3)cc(=O)oc2c1` (single isomer, unassigned) [Compound 40] had an activation at 50 µg/mL in series [1] (Table 4) of 0%. In series [1], the “PPAR-γ activity in the in vitro assay (in words)” value is listed as “loss of all activity”. Also, the “solubility (relative)” value in series [2] is on record as “even less soluble than 24”.

With `COc1cc(O[C@@H]2O[C@H](CO[C@@H]3OCC(O)(CO)[C@H]3O)[C@@H](O)[C@H](O)[C@H]2O)c2c(-c3ccc(O)c(O)c3)cc(=O)oc2c1` (stereo partly drawn) [Compound 24, 5-O-[β-D-apiofuranosyl-(1→6)-β-D-glucopyranosyl]-7-methoxy-3′,4′-dihydroxy-4-phenylcoumarin], the “% Activation PPAR-γ” value in series [1] (Table 2) and in series [1] (Table 4) was 101% throughout. Further, the “PPAR-γ activity in the in vitro assay (in words)” value in series [1] is “top performers”. In addition, the “GLUT-4 expression (Western blot)” value in series [3] was “strong GLUT-4 expression”.

For the origin of these results see patent publication US20240398844A1, “PHENYLCOUMARINS FOR TREATING INFLAMMATION” (Ohio State Innovation Foundation, priority 2021, published 2024).
